Marks after values point to notes of the source that are not given here. Residues, ends and D or L forms follow the SMILES beside them.
System: HLA matched or autologous B cell line targets pre-pulsed with the peptide
Test: Standard CTL chromium release assay with restimulated lymphocytes from malaria-exposed Gambians (secondary CTL response)
Assay type: cell-based, humans
Conditions: HLA-A2
Description: Peptides shown to bind to a particular HLA class I allele were tested for CTL recognition in assays using lymphocytes from malaria-exposed Gambians, as described previously^1. A minority of peptides, synthesized to correspond to a peptides binding motif were not tested in the relevant assembly assay but tested only for CTL recognition. Cells from 82 adult Gambians and 53 Gambian children, all exposed to malaria, were used in the course of these studies. The children and adults were HLA typed using cellular or molecular techniques as described previously^1. Peptides were incubated with cells either singly, or in pools as described^1 at concentrations of 10-100µM. Peptides could either be left with the cells for the duration of restimulation (as reported^1) or washed off after an hour. Cells were cultured for 1-3 weeks before a standard CTL chromium release assay^1 was performed using HLA matched or autologous B cell line targets pre-pulsed with the peptide to be tested. Peptides were tested either singly or in pools for CTL recognition.

SMILES	epitope for a secondary cytotoxic T lymphocyte response (asterisk mark)
CC[C@H](C)[C@H](NC(=O)[C@H](CCCCN)NC(=O)[C@H](CCC(N)=O)NC(=O)[C@H](CC(C)C)NC(=O)[C@@H](N)Cc1ccc(O)cc1)C(=O)N[C@@H](CCC(N)=O)C(=O)N[C@@H](CC(N)=O)C(=O)N[C@@H](CO)C(=O)N[C@@H](CC(C)C)C(=O)O [cp37] (H-YLQKIQNSL-OH)	cp37 *
CC[C@H](C)[C@H](NC(=O)[C@H](CCCCN)NC(=O)[C@H](CCC(N)=O)NC(=O)[C@H](CC(C)C)NC(=O)[C@@H](N)Cc1ccc(O)cc1)C(=O)N[C@@H](CCCCN)C(=O)N[C@@H](CC(N)=O)C(=O)N[C@@H](CO)C(=O)N[C@@H](CC(C)C)C(=O)O [cp38] (H-YLQKIKNSL-OH)	cp38 *
CC[C@H](C)[C@H](NC(=O)CN)C(=O)N[C@@H](C)C(=O)NCC(=O)NCC(=O)N[C@@H](CC(C)C)C(=O)N[C@@H](C)C(=O)N[C@@H](CC(C)C)C(=O)N[C@@H](CC(C)C)C(=O)O [tr39] (H-GIAGGLALL-OH)	tr39 *
CC(C)C[C@H](NC(=O)[C@H](Cc1ccc(O)cc1)NC(=O)[C@H](CCCCN)NC(=O)[C@@H](NC(=O)[C@H](CC(N)=O)NC(=O)CNC(=O)[C@H](CC(C)C)NC(=O)[C@@H](N)Cc1c[nH]cn1)C(C)C)C(=O)N[C@H](C(=O)O)C(C)C [tr26] (H-HLGNVKYLV-OH)	tr26 *
CC[C@H](C)[C@H](NC(=O)[C@@H](NC(=O)[C@H](CCCCN)NC(=O)[C@H](CC(C)C)NC(=O)[C@@H](N)Cc1ccc(O)cc1)[C@@H](C)O)C(=O)N[C@@H](CCC(N)=O)C(=O)N[C@@H](CC(N)=O)C(=O)N[C@@H](CO)C(=O)N[C@@H](CC(C)C)C(=O)O [cp36] (H-YLKTIQNSL-OH)	cp36 *

Source: patent publication EP0753009B1, “MALARIA PEPTIDES” (Oxxon Pharmaccines Limited, priority 1994, dated 2001)
